From ChEMBL document CHEMBL1129870, “INCORPORATION OF CONFORMATIONALLY CONSTRAINED PHENYLALANINE DERIVATIVES TIC, SIC, HIC AND NIC INTO A CHOLECYSTOKININ-B/GASTRIN RECEPTOR ANTAGONIST” (Bioorg Med Chem Lett, 1997)

Each compound was assayed against T1, Gastrin/cholecystokinin type B receptor (Rattus norvegicus) (UniProt P30553) (assay: Evaluated for Cholecystokinin type B receptor antagonistic activity in isolated lumen-perfused immature rat stomach).
T1 sequence (whole entry): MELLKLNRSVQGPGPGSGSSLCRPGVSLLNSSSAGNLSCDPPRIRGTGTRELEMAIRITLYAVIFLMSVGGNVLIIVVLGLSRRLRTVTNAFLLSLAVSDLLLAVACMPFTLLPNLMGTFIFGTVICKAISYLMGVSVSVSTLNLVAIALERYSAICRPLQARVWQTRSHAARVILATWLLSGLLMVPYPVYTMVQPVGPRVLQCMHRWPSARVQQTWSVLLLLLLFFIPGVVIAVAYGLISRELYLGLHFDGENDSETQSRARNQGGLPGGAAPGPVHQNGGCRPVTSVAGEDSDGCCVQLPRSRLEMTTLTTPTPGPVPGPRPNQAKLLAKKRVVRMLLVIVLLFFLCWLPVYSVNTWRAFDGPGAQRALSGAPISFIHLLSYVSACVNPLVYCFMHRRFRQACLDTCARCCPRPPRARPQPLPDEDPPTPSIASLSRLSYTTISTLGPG
Assay type: functional, tissue-based

Compound | pKB
O=C(O)c1cc(NC(=O)C2Cc3ccccc3CCCCN2C(=O)c2cc3[nH]cnc3cc2C(=O)NCC23CC4CC(CC(C4)C2)C3)cc(C(=O)O)c1 (stereo not given) | 9.13
O=C(O)c1cc(NC(=O)[C@H](Cc2ccccc2)NC(=O)c2cc3[nH]cnc3cc2C(=O)NCC23CC4CC(CC(C4)C2)C3)cc(C(=O)O)c1 | 9.08
O=C(O)c1cc(NC(=O)C2Cc3ccccc3CN2C(=O)c2cc3[nH]cnc3cc2C(=O)NCC23CC4CC(CC(C4)C2)C3)cc(C(=O)O)c1 (stereo not given) | 7.64
O=C(O)c1cc(NC(=O)C2Cc3ccccc3CCCN2C(=O)c2cc3[nH]cnc3cc2C(=O)NCC23CC4CC(CC(C4)C2)C3)cc(C(=O)O)c1 (stereo not given) | 7.93
O=C(O)c1cc(NC(=O)C2Cc3ccccc3CCN2C(=O)c2cc3[nH]cnc3cc2C(=O)NCC23CC4CC(CC(C4)C2)C3)cc(C(=O)O)c1 (stereo not given) | 7.66

What follows are compounds tested against T2, Gastrin/cholecystokinin type B receptor (Mus musculus, UniProt P56481) (assay: Evaluated for Cholecystokinin type B receptor antagonistic activity in which 20 pM [125I]BH-CCK-8S was used to label CCKB/gastrin binding sites in mouse cortical homogenates).
T2 sequence (P56481 whole entry): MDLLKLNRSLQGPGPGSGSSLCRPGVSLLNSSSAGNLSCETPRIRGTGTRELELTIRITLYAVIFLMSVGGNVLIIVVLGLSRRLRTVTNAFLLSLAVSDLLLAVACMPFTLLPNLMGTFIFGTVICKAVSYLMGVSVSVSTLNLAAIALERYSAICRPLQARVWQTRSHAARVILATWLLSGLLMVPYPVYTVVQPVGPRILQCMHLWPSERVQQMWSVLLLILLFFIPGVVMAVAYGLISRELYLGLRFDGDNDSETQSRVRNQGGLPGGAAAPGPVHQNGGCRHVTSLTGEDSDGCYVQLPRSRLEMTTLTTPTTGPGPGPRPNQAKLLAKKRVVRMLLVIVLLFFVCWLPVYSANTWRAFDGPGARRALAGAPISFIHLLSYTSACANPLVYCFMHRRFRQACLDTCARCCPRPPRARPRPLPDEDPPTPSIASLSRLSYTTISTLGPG

Compound | IC50 [nM]
O=C(O)c1cc(NC(=O)C2Cc3ccccc3CCCCN2C(=O)c2cc3[nH]cnc3cc2C(=O)NCC23CC4CC(CC(C4)C2)C3)cc(C(=O)O)c1 (stereo not given) | 5.01
O=C(O)c1cc(NC(=O)[C@H](Cc2ccccc2)NC(=O)c2cc3[nH]cnc3cc2C(=O)NCC23CC4CC(CC(C4)C2)C3)cc(C(=O)O)c1 | 5.25
O=C(O)c1cc(NC(=O)C2Cc3ccccc3CN2C(=O)c2cc3[nH]cnc3cc2C(=O)NCC23CC4CC(CC(C4)C2)C3)cc(C(=O)O)c1 (stereo not given) | 178
O=C(O)c1cc(NC(=O)C2Cc3ccccc3CCCN2C(=O)c2cc3[nH]cnc3cc2C(=O)NCC23CC4CC(CC(C4)C2)C3)cc(C(=O)O)c1 (stereo not given) | 224
O=C(O)c1cc(NC(=O)C2Cc3ccccc3CCN2C(=O)c2cc3[nH]cnc3cc2C(=O)NCC23CC4CC(CC(C4)C2)C3)cc(C(=O)O)c1 (stereo not given) | 234
